Test results reported in patent EP1611889A1, “ANTIBACTERIAL AGENT AND ANTICANCER AGENT” (MITSUBISHI CORPORATION, priority 2003, dated 2004).

Assay: Solubility in DMSO
Assay type: physicochemical

## C60-bis(N,N-dimethyl-2-hexylpyyrolidinium iodido) [derivative 4]
  dissolved in DMSO at a concentration: ≥ 5 mM
